Assay results reported in patent US9988430B2, “Stable GLP-1 based GLP-1/glucagon receptor co-agonists” (Novo Nordisk A/S, priority 2014, dated 2018).
*1 amine or outer side, *2 acyl side, *3 side chain or, on linkers, in order; H or OH if unused. Where a SMILES comes first, the peptide text is derived from it. Side-chain parts run from the residue outwards. [ ]: non-standard residue; d: D form. The star is where a group is joined. C18 diacid = O=C(O)CCCCCCCCCCCCCCCCC(=O)*; γGlu = O=C(O)[C@H](CCC(=O)[*:2])N[*:1]; Desaminohistidyl = O=C(CCc1c[nH]cn1)*; AEEA = NCCOCCOCC(=O)O; Aib = CC(C)(N)C(=O)O

Biological target: T1, human glucagon receptor (Homo sapiens, UniProt P47871)
T1 construct: expressed in transfected cells; host or cells: membranes of BHK cells, clone BHK hGCGR A3*25
Experiment: Assay (II)(b): glucagon receptor binding, [125I]-glucagon displacement, SPA on BHK membranes
Settings: displacement of [125I]-glucagon, membranes with human glucagon receptor; read-out: IC50 GlucagonR
Experimental: Assay (II): GLP-1 and Glucagon Receptor Binding The purpose of this assay is to test the in vitro receptor binding activity of the GLP-1 derivatives of the invention. (b) Glucagon Receptor Binding The glucagon receptor (glucagonR) binding activity is a measure of affinity of a derivative for the human glucagon receptor. The glucagon receptor binding of each derivative were determined with competitive binding, displacing [^125I]-glucagon bound to glucagon receptors expressed in cell membranes associated with wheat germ agglutinin (WGA) scintillation proximity assay (SPA) beads. Each derivative was added in a series of concentrations to isolated membranes comprising the human glucagon receptor and displacement of the labelled ligand was monitored. The receptor binding was reported as the concentration at which half of the labelled ligand is displaced from the receptor, the IC^50 value. The following chemicals were used in the assay: DMEM w Glutamax (Gibco 61965-026), Pen/strep (Invitrogen 15140-122), G418 (Invitrogen 10131-027), Versene (Gibco 15040), 1 M Hepes (Gibco 15630), PBS (Invitrogen 14190-094), fetal calf serum (Invitrogen 16140-071), MgCl2 (Merck 1.05832.1000), EDTA (Invitrogen 15575-038), CaCl2 (Sigma, C5080), Tween 20 (Amresco 0850C335), ovalbumin (Sigma A5503), SPA particles (wheat germ agglutinin (WGA) SPA beads, Perkin Elmer RPNQ0001), [125I]-glucagon (produced in-house), OptiPlate™-96 (Packard 6005290). HME buffer consisted of 25 mM HEPES, 2 mM MgCl2 and 1 mM EDTA, and pH was adjusted to 7.4. Assay buffer consisted of 50 mM HEPES supplemented with 5 mM MgCl2, 1 mM CaCl2, 0.02% Tween 20 and 0.1% Ovalbumin, and pH was adjusted to 7.4. The cells used in this assay (clone BHK hGCGR A3*25) were BHK cells stable transfected with an expression plasmid comprising the cDNA encoding the human glucagon receptor. The cells were grown at 5% CO2 in DMEM, 10% fetal calf serum, 1% Pen/Strep (Penicillin/Streptomycin) and 1.0 mg/ml of the selection marker G418. To make a membrane preparation the cells were grown to approximately 80% confluence. The cells were washed twice in phosphate-buffered saline and harvested. The cells were pelleted using a brief centrifugation and the cell pellet was kept on ice. Lyse the cells by adding approx. 5 ml HME buffer, mix by pipetting and snap freeze in liquid nitrogen. Thaw quickly and add HME buffer to 10 ml. The cell pellet was homogenised with an ULTRA-THURRAX dispersing instrument for 20-30 seconds. The homogenate was centrifuged at 20.000×G, 4° C. for 10 minutes. The pellet was resuspended (homogenised) in 1-2 ml HME buffer. The protein concentration was determined. The membranes were aliquoted and snapfrozen in liquid nitrogen and stored at minus 80° C. • 1. For the receptor binding assay 50 μl of the assay buffer was added to each well of an assay plate. • 2. Test compounds were serially diluted to give the following concentrations: 8×10EE-7 M, 8×10EE-8 M, 8×10EE-9 M, 8×10EE-10 M, 8×10EE-11 M, 8×10EE-12 M and 8×10EE-13 M. Twenty-five μl were added to appropriate wells in the assay plate. • 3. Cell membrane aliquots were thawed and diluted to their working concentration. Fifty μl were added to each well in the assay plate. • 4. WGA SPA beads were suspended in assay buffer at 20 mg/ml. The suspension was diluted to 10 mg/ml in assay buffer just prior to addition to the assay plate. Fifty μl were added to each well in the assay plate. • 5. The incubation was started by adding 25 μl of 480 pM solution of [125I]-glucagon to each well of the assay plate. A 25 μl aliquot was reserved for measuring total counts/well. • 6. The assay plate was incubated for 2 h at 25° C. • 7. The assay plate was centrifuged for 10 min at 1500 rpm. • 8. The assay plate was read in a Perkin Elmer TopCount NXT instrument. Calculations The data from the TopCount instrument were transferred to GraphPad Prism software. The software averaged the values for the replicates and performed a non-linear regression. […]

T1 sequence (P47871 26-477): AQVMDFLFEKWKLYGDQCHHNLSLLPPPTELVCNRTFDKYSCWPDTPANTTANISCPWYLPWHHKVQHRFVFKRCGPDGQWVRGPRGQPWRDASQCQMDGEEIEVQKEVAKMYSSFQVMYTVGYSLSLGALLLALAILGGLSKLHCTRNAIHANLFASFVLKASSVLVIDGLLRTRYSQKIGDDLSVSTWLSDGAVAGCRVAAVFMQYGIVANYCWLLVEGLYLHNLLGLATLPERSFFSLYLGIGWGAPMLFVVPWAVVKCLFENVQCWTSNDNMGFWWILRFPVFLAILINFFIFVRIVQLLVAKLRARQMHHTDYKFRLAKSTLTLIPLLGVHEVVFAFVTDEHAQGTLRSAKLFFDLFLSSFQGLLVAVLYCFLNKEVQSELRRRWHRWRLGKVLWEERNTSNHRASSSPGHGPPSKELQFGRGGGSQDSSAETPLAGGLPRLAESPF

IC50 [nM] | SMILES
3.7 | CC[C@H](C)[C@H](NC(=O)[C@H](Cc1ccccc1)NC(=O)[C@H](CCC(=O)O)NC(=O)[C@H](CCCNC(=N)N)NC(=O)[C@H](C)NC(=O)[C@H](C)NC(=O)[C@H](CCCNC(=N)N)NC(=O)[C@H](C)NC(=O)[C@H](CCC(=O)O)NC(=O)[C@H](CC(C)C)NC(=O)[C@H](Cc1ccc(O)cc1)NC(=O)[C@H](CCCCN)NC(=O)[C@H](CO)NC(=O)[C@@H](NC(=O)[C@H](CC(=O)O)NC(=O)[C@H](CO)NC(=O)[C@@H](NC(=O)[C@H](Cc1ccccc1)NC(=O)[C@@H](NC(=O)CNC(=O)[C@H](Cc1c[nH]cn1)NC(=O)C(C)(C)NC(=O)CCc1c[nH]cn1)[C@@H](C)O)[C@@H](C)O)C(C)C)C(=O)N[C@@H](C)C(=O)N[C@@H](Cc1c[nH]c2ccccc12)C(=O)N[C@@H](CC(C)C)C(=O)N[C@@H](CC(C)C)C(=O)N[C@@H](CCCCNC(=O)CC[C@H](NC(=O)COCCOCCNC(=O)COCCOCCNC(=O)CC[C@H](NC(=O)CC[C@H](NC(=O)CCCCCCCCCCCCCCCCC(=O)O)C(=O)O)C(=O)O)C(=O)O)C(=O)NCC(=O)NCC(=O)NCC(=O)O [Example 31, N^ε34-[(4S)-4-carboxy-4-[[2-[2-[2-[[2-[2-[2-[[(4S)-4-carboxy-4-[[(4S)-4-carboxy-4-(17-carboxyheptadecanoylamino)butanoyl]amino]butanoyl]amino]ethoxy]ethoxy]acetyl]amino]ethoxy]ethoxy]acetyl]amino]butanoyl]-[Imp7,Aib8,His9,Lys18,Ala22,Arg23,Arg26,Leu33,Gly36]-GLP-1-(7-37)-peptide] (Desaminohistidyl-[Aib]HGTFTSDVSKYLEARAAREFIAWLLK([γGlu-AEEA-AEEA-γGlu-γGlu-C18 diacid])GGG-OH)
4.3 | CC[C@H](C)[C@H](NC(=O)[C@H](Cc1ccccc1)NC(=O)[C@H](CCC(=O)O)NC(=O)[C@H](CCCNC(=N)N)NC(=O)[C@H](C)NC(=O)[C@H](C)NC(=O)[C@H](CCC(N)=O)NC(=O)[C@H](CCC(=O)O)NC(=O)[C@H](CCC(=O)O)NC(=O)[C@H](CC(C)C)NC(=O)[C@H](Cc1ccc(O)cc1)NC(=O)[C@H](CCCCN)NC(=O)[C@H](CO)NC(=O)[C@@H](NC(=O)[C@H](CC(=O)O)NC(=O)[C@H](CO)NC(=O)[C@@H](NC(=O)[C@H](Cc1ccccc1)NC(=O)[C@@H](NC(=O)CNC(=O)[C@H](Cc1c[nH]cn1)NC(=O)C(C)(C)NC(=O)CCc1c[nH]cn1)[C@@H](C)O)[C@@H](C)O)C(C)C)C(=O)N[C@@H](C)C(=O)N[C@@H](Cc1c[nH]c2ccccc12)C(=O)N[C@@H](CC(C)C)C(=O)N[C@@H](CC(C)C)C(=O)N[C@@H](CCCCNC(=O)CNC(=O)[C@H](CO)NC(=O)CC[C@H](NC(=O)CC[C@H](NC(=O)CCCCCCCCCCCCCCCCC(=O)O)C(=O)O)C(=O)O)C(=O)N[C@H](C(N)=O)[C@@H](C)O [Example 4, N^ε34-[2-[[(2S)-2-[[(4S)-4-carboxy-4-[[(4S)-4-carboxy-4-(17-carboxyheptadecanoylamino)butanoyl]amino]butanoyl]amino]-3-hydroxypropanoyl]amino]acetyl]-[Imp7,Aib8,His9,Lys18,Glu22,Arg26,Leu33,Thr35]-GLP-1-(7-35)-peptide amide] (Desaminohistidyl-[Aib]HGTFTSDVSKYLEEQAAREFIAWLLK([Gly-Ser-γGlu-γGlu-C18 diacid])T-NH2)
18.8 | CC[C@H](C)[C@H](NC(=O)[C@H](Cc1ccccc1)NC(=O)[C@H](CCC(=O)O)NC(=O)[C@H](CCCNC(=N)N)NC(=O)[C@H](C)NC(=O)[C@H](C)NC(=O)[C@H](CCCNC(=N)N)NC(=O)CNC(=O)[C@H](CCC(=O)O)NC(=O)[C@H](CC(C)C)NC(=O)[C@H](Cc1ccc(O)cc1)NC(=O)[C@H](CCCNC(=N)N)NC(=O)[C@H](CO)NC(=O)[C@@H](NC(=O)[C@H](CC(=O)O)NC(=O)[C@H](CO)NC(=O)[C@@H](NC(=O)[C@H](Cc1ccccc1)NC(=O)[C@@H](NC(=O)CNC(=O)[C@H](Cc1c[nH]cn1)NC(=O)C(C)(C)NC(=O)CCc1c[nH]cn1)[C@@H](C)O)[C@@H](C)O)C(C)C)C(=O)N[C@@H](C)C(=O)N[C@@H](Cc1c[nH]c2ccccc12)C(=O)N[C@@H](CC(C)C)C(=O)N[C@@H](CC(C)C)C(=O)N[C@@H](CCCCNC(=O)CC[C@H](NC(=O)CC[C@H](NC(=O)COCCOCCNC(=O)CC[C@H](NC(=O)CC[C@H](NC(=O)CCCCCCCCCCCCCCCCC(=O)O)C(=O)O)C(=O)O)C(=O)O)C(=O)O)C(=O)NCC(=O)N[C@@H](C)C(=O)NCC(=O)O [Example 35, N^ε34-[(4S)-4-carboxy-4-[[(4S)-4-carboxy-4-[[2-[2-[2-[[(4S)-4-carboxy-4-[[(4S)-4-carboxy-4-(17-carboxyheptadecanoylamino)butanoyl]amino]butanoyl]amino]ethoxy]ethoxy]acetyl]amino]butanoyl]amino]butanoyl]-[Imp7,Aib8,His9,Arg18,Arg23,Arg26,Leu33,Ala36]-GLP-1-(7-37)-peptide] (Desaminohistidyl-[Aib]HGTFTSDVSRYLEGRAAREFIAWLLK([γGlu-γGlu-AEEA-γGlu-γGlu-C18 diacid])GAG-OH)
4.3 | CC[C@H](C)[C@H](NC(=O)[C@H](Cc1ccccc1)NC(=O)[C@H](CCC(=O)O)NC(=O)[C@H](CCCNC(=N)N)NC(=O)[C@H](C)NC(=O)[C@H](C)NC(=O)[C@H](CCC(N)=O)NC(=O)[C@H](CCC(=O)O)NC(=O)[C@H](CCC(=O)O)NC(=O)[C@H](CC(C)C)NC(=O)[C@H](Cc1ccc(O)cc1)NC(=O)[C@H](CCCCN)NC(=O)[C@H](CO)NC(=O)[C@@H](NC(=O)[C@H](CC(=O)O)NC(=O)[C@H](CO)NC(=O)[C@@H](NC(=O)[C@H](Cc1ccccc1)NC(=O)[C@@H](NC(=O)CNC(=O)[C@H](Cc1c[nH]cn1)NC(=O)C(C)(C)NC(=O)CCc1c[nH]cn1)[C@@H](C)O)[C@@H](C)O)C(C)C)C(=O)N[C@@H](C)C(=O)N[C@@H](Cc1c[nH]c2ccccc12)C(=O)N[C@@H](CC(C)C)C(=O)N[C@@H](CC(C)C)C(=O)N[C@@H](CCCCNC(=O)COCCOCCNC(=O)COCCOCCNC(=O)CC[C@H](NC(=O)CC[C@H](NC(=O)CCCCCCCCCCCCCCCCC(=O)O)C(=O)O)C(=O)O)C(=O)N[C@H](C(N)=O)[C@@H](C)O [Example 5, N^ε34-[2-[2-[2-[[2-[2-[2-[[(4S)-4-carboxy-4-[[(4S)-4-carboxy-4-(17-carboxyheptadecanoylamino)butanoyl]amino]butanoyl]amino]ethoxy]ethoxy]acetyl]amino]ethoxy]ethoxy]acetyl]-[Imp7,Aib8,His9,Lys18,Glu22,Arg26,Leu33,Thr35]-GLP-1-(7-35)-peptide amide] (Desaminohistidyl-[Aib]HGTFTSDVSKYLEEQAAREFIAWLLK([AEEA-AEEA-γGlu-γGlu-C18 diacid])T-NH2)
